Data reported in patent EP0471841A1, “SULFONAMIDE DERIVATIVE AND PHARMACEUTICAL COMPOSITION CONTAINING THE SAME” (Asahi Kasei Kogyo Kabushiki Kaisha, priority 1990, dated 1991).
Where a name gives a salt, the structure may show the parent alone. Read-outs that look alike come from different tables or passages of the source.

Test system: tracheal specimens excised from guinea pigs
Assay: Inhibitory effect on KCl-induced contraction of tracheal specimens excised from guinea pigs (Magnus tube)
Format: cell-based
Conditions: dose required for relaxing KCl-induced contraction to 50 %, final KCl concentration: 20 mM, 37 °C, compounds other than acid addition salts used as hydrochloride, 3 specimens per group, read-out: ED₅₀ Effect on KCl-induced contraction
Description: The bronchial smooth muscle-relaxing action of the sulfonamide derivative of the present invention was evaluated by the effect on suppression of KCl-induced contraction and PGF2α-induced contraction of bronchial specimens excised from guinea pigs.
According to a method in which tracheal specimens excised from guinea pigs were used (Takagi and Ozawa, "Yakubutsugaku Jikken (Experiments in Pharmacology)", pp.100-102, 1960, published by Nanzando Japan; and Fujiwara and Shibata, "Yakurigaku Kiso Jikenho (Methods of Fundamental Experiments in Pharmacology)" pp.131-134, 1982, published by Kyourin, Japan), relaxing effect of sulfonamide derivatives of the present invention on bronchial smooth muscle was examined. Of compounds (1) to (69) shown herein, compounds other than acid addition salts were individually used in the form of a hydrochloride which was obtained by the same method as described in Example 61.
From male guinea pigs weighing 350 to 500 g (Hartley strain, Kuroda Junkei Dobutsu), tracheas were excised and each of the excised tracheal specimens was hung in 20 ml of a Magnus tube filled with Krebs-Henseleit solution under isotonic conditions and the solution temperature was kept at 37 °C. An aqueous KCl solution was dropwise added into the Magnus tube (final KCl concentration: 20 mM) to contract the tracheal specimen. After the KCl-induced contraction became stable, each of the compounds of the present invention was dissolved in distilled water or physiological saline, and the compound solution was cumulatively added into the Magnus tube. The relaxing effect of each of the compounds of the present invention on contracted tracheal specimens was evaluated and a dose-response curve was obtained.
A dose required for relaxing KCl-induced contraction to 50 %, i.e., ED₅₀ was calculated from the dose-response curve. For comparison, the same method as described above was repeated except that aminophylline was used, to thereby determine an ED₅₀. The number of tracheal specimens in each group was 3.

Row | Compound | EC50 [µM] | EC50 (Cavia porcellus) [µM]
1 | 1-(1-hydroxy-5-isoquinolinesulfonylaminoethyl) homopiperazine hydrochloride [(33)] | 24 | 
2 | 1-(1-hydroxy-5-isoquinolinesulfonylaminoethyl) piperazine hydrochloride [(32)] | 27 | 
3 | 1-(1-hydroxy-5-isoquinolinesulfonylaminoethyl)-3-(3,4-methylenedioxybenzyl)homopiperazine hydrochloride [(35)] | 18 | 
4 | O=S(=O)(NCCNCCc1ccc2c(c1)OCO2)c1cccc2cnccc12 [(1), N-[2-(3,4-methylenedioxyphenethylamino)ethyl]-5-isoquinolinesulfonamide] |  | 7.4
5 | O=S(=O)(NCCNCCc1ccc2c(c1)OCO2)c1cccc2c(O)nccc12 [(2), N-[2-(3,4-methylenedioxyphenethylamino)ethyl]-1-hydroxy-5-isoquinolinesulfonamide hydrochloride] |  | 15
6 | COc1ccc(CCNCCNS(=O)(=O)c2ccc(Cl)c3ncccc23)cc1 [(5), N-[2-(4-methoxyphenethylamino)ethyl]-8-chloro-5-quinolinesulfonamide] |  | 28
7 | O=S(=O)(NCCNCCc1ccc(Cl)cc1)c1ccc(Cl)c2ncccc12 [(6), N-[2-(4-chlorophenethylamino)ethyl]-8-chloro-5-quinolinesulfonamide] |  | 60
8 | O=S(=O)(NCCNCCc1ccc(C(F)(F)F)cc1)c1ccc(Cl)c2ncccc12 [(7), N-[2-(4-trifluoromethylphenethylamino)ethyl]-8-chloro-5-quinolinesulfonamide] |  | 70
9 | COc1ccc(CCNCCNS(=O)(=O)c2ccc(Cl)c3ncccc23)cc1OC [(8), N-[2-(3,4-dimethoxyphenethylamino)ethyl]-8-chloro-5-quinolinesulfonamide] |  | 120
10 | O=S(=O)(NCCNCCc1ccc2c(c1)OCO2)c1ccc(Cl)c2ncccc12 [(9), N-[2-(3,4-methylenedioxyphenethylamino)ethyl]-8-chloro-5-quinolinesulfonamide] |  | 30
11 | O=S(=O)(NCCNCc1cccc(Cl)c1)c1ccc(Cl)c2ncccc12 [(10), N-[2-(3-chlorobenzylamino)ethyl]-8-chloro-5-quinolinesulfonamide] |  | 120
12 | COc1ccc(CNCCNS(=O)(=O)c2ccc(Cl)c3ncccc23)cc1 [(11), N-[2-(4-methoxybenzylamino)ethyl]-8-chloro-5-quinolinesulfonamide] |  | 125
13 | COc1ccc(CNCCNS(=O)(=O)c2ccc(Cl)c3ncccc23)cc1OC [(12), N-[2-(3,4-dimethoxybenzylamino)ethyl]-8-chloro-5-quinolinesulfonamide] |  | 160
14 | O=S(=O)(NCCNCc1ccc2c(c1)OCO2)c1ccc(Cl)c2ncccc12 [(13), N-[2-(3,4-methylenedioxybenzylamino)ethyl]-8-chloro-5-quinolinesulfonamide] |  | 28
15 | O=S(=O)(NCCNCc1ccccc1)c1ccc(Cl)c2ncccc12 [(14)] |  | 97
16 | O=S(=O)(NCCNCCc1ccccc1)c1ccc(Cl)c2ncccc12 [(15)] |  | 110
17 | CCOc1ccc(S(=O)(=O)NCCNCCc2ccc(OC)cc2)c2cccnc12 [(16), N-[2-(4-methoxyphenethylamino)ethyl]-8-ethoxy-5-quinolinesulfonamide] |  | 35
18 | CCOc1ccc(S(=O)(=O)NCCNCCc2ccc(Cl)cc2)c2cccnc12 [(17), N-[2-(4-chlorophenethylamino)ethyl]-8-ethoxy-5-quinolinesulfonamide] |  | 71

Row | Compound | EC50 [µM] | EC50 (Cavia porcellus) [µM]
19 | CCOc1ccc(S(=O)(=O)NCCNCCc2ccc(C(F)(F)F)cc2)c2cccnc12 [(18), N-[2-(4-trifluoromethylphenethylamino)ethyl]-8-ethoxy-5-quinolinesulfonamide] |  | 75
20 | CCOc1ccc(S(=O)(=O)NCCNCCc2ccc(OC)c(OC)c2)c2cccnc12 [(19), N-[2-(3,4-dimethoxyphenethylamino)ethyl]-8-ethoxy-5-quinolinesulfonamide] |  | 125
21 | CCOc1ccc(S(=O)(=O)NCCNCCc2ccc3c(c2)OCO3)c2cccnc12 [(20), N-[2-(3,4-methylenedioxyphenethylamino)ethyl]-8-ethoxy-5-quinolinesulfonamide] |  | 38
22 | CCOc1ccc(S(=O)(=O)NCCNCc2cccc(Cl)c2)c2cccnc12 [(21), N-[2-(3-chlorobenzylamino)ethyl]-8-ethoxy-5-quinolinesulfonamide] |  | 128
23 | CCOc1ccc(S(=O)(=O)NCCNCc2ccc(OC)cc2)c2cccnc12 [(22), N-[2-(4-methoxybenzylamino)ethyl]-8-ethoxy-5-quinolinesulfonamide] |  | 131
24 | CCOc1ccc(S(=O)(=O)NCCNCc2ccc(OC)c(OC)c2)c2cccnc12 [(23), N-[2-(3,4-dimethoxybenzylamino)ethyl]-8-ethoxy-5-quinolinesulfonamide] |  | 163
25 | CCOc1ccc(S(=O)(=O)NCCNCc2ccc3c(c2)OCO3)c2cccnc12 [(24), N-[2-(3,4-methylenedioxybenzylamino)ethyl]-8-ethoxy-5-quinolinesulfonamide] |  | 31
26 | CCOc1ccc(S(=O)(=O)NCCNCc2ccccc2)c2cccnc12 [(25), N-(2-benzylaminoethyl)-8-ethoxy-5-quinolinesulfonamide] |  | 105
27 | CCOc1ccc(S(=O)(=O)NCCNCCc2ccccc2)c2cccnc12 [(26), N-(2-phenethylaminoethyl)-8-ethoxy-5-quinolinesulfonamide] |  | 112
28 | O=S(=O)(NCCN1CCNCC1)c1cccc2cnccc12 [(28), 1-(5-isoquinolinesulfonylaminoethyl)piperazine] |  | 24
29 | O=S(=O)(NCCN1CCCNCC1)c1cccc2cnccc12 [(29), 1-(5-isoquinolinesulfonylaminoethyl)homopiperazine] |  | 22
30 | O=S(=O)(NCCN1CCN(Cc2ccc3c(c2)OCO3)CC1)c1cccc2c(O)nccc12 [(34), 1-(1-hydroxy-5-isoquinolinesulfonylaminoethyl)-4-(3,4-methylenedioxybenzyl)piperazine hydrochloride] |  | 19
31 | O=S(=O)(NCCN1CCNCC1)c1ccc(Cl)c2ncccc12 [(37), 1-(8-chloro-5-quinolinesulfonylaminoethyl) piperazine] |  | 48
32 | O=S(=O)(NCCN1CCN(Cc2ccc3c(c2)OCO3)CC1)c1ccc(Cl)c2ncccc12 [(39), 1-(8-chloro-5-quinolinesulfonylaminoethyl)-4-(3,4-methylenedioxybenzyl)piperazine] |  | 31
33 | O=S(=O)(NCCN1CCCN(Cc2ccc(Cl)cc2)CC1)c1ccc(Cl)c2ncccc12 [(40), 1-(8-chloro-5-quinolinesulfonylaminoethyl)-4-(4-chlorobenzyl)homopiperazine] |  | 68
34 | O=S(=O)(NCCN1CCN(Cc2ccc(Cl)cc2)CC1)c1ccc(Cl)c2ncccc12 [(41), 1-(8-chloro-5-quinolinesulfonylaminoethyl)-4-(4-chlorobenzyl)piperazine] |  | 78
35 | COc1ccc(CCN2CCCN(CCNS(=O)(=O)c3ccc(Cl)c4ncccc34)CC2)cc1OC [(42), 1-(8-chloro-5-quinolinesulfonylaminoethyl)-4-(3,4-dimethoxyphenethyl)homopiperazine] |  | 95
36 | COc1ccc(CCN2CCN(CCNS(=O)(=O)c3ccc(Cl)c4ncccc34)CC2)cc1OC [(43), 1-(8-chloro-5-quinolinesulfonylaminoethyl)-4-(3,4-dimethoxyphenethyl)piperazine] |  | 106
